Results on twelve compounds are retold here after patent US5874472A, “Aminoacid derivatives as no synthase inhibitors” (Glaxo Wellcome Inc., priority 1993, dated 1999).

The target in test [1] is T1, inducible human NOS (Homo sapiens, UniProt P35228).
T1 construct: Purification of NOS cytokine-induced human colorectal adenocarcinoma DLD-1 cells; host or cells: DLD-1 cells induced with interferon-gamma, interleukin-6, tumor necrosis factor and interleukin-1beta; 2',5' ADP Sepharose purified
As to the kind of experiment: Inhibition of inducible human NOS (citrulline formation), enzyme from cytokine-induced DLD-1 cells. The settings on record: NOS from cytokine-induced DLD-1 cells; 1 μM L-[14C] arginine; pH 7.4; 10 μM FAD, no calmodulin/CaCl2. Type of test: biochemical. As to the method: (§1) NOS was assayed for the formation of citrulline following the procedure of Schmidt et al (PNAS 88 365-369, 1991) with these modifications: 20 mM Hepes, pH 7.4, 10 μg/ml calmodulin, 2.5 mM CaCl2 2.5 mM DTT, 125 μM NADPH 10 μM H4 Biopterin, 0.5 mg/ml BSA, and 1 μM L-[^14 C] arginine (New England Nuclear). Linearity of NOS-catalyzed rate was confirmed prior to kinetic studies that used single time point determination of rate.
Purification of NOS cytokine-induced human colorectal adenocarcinoma DLD-1 cells.
DLD-1 (ATCC No. CCL 221) were grown at 37° C., 5% CO2 in RPMI 1640 medium supplemented with L- glutamin, penicillin, streptomycin, and 10% heat-inactivated fetal bovine serum. Cells were grown to confluency and then the following cocktail of cytokines were added: 100 units/ml interferon-gamma, 200 units/ml interleukin-6, 10 ng/ml tumor necrosis factor, and 0.5 ng/ml interieukin-1β. At 10-24 hr post-induction, cells were harvested by scraping and washed with phosphate-buffered saline. Pelleted cells were stored at -70° C. Purification of the induced NOS was performed at 4° C. Crude extract was prepared by three cycles of freeze/thawing cells in TDGB (20 mM tris pH 7.5, 10% glycerol, 1 mM DTT, 2 μM tetrahydrobiopterin). Extract was applied directly onto a column of 2',5' ADP sepharse (Pharmacia). Resin was sequentially washed with TDGB, 0.5 M NaCl in TDGB, TDGB. NOS was eluted with 2 mM NADPH in TDGB. BSA was immediately added to give a final concentration of 1 mg/ml. NOS could be quick frozen and stored at -70° C. without loss in activity for at least 2 months.
Assay for inducible human NOs.
The formation of citrulline was assayed as described above except that 10 μM FAD was included and calmodulin and CaCl2 were excluded from the assay mix.

The target in test [2] is T2, human placental NOS (Homo sapiens, UniProt P29474).
T2 construct: Purification of NOS from human placenta; from tissue; host or cells: fresh human placenta, amnion and chorion removed; ammonium sulfate and 2',5' ADP agarose purified
As to the kind of experiment: Inhibition of human placental NOS (citrulline formation). Type of test: biochemical. Conditions: 1 μM L-[14C] arginine; pH 7.4; calmodulin, CaCl2. As to the method:
It is noted that the NO synthase isolated from human placenta most probably represents the endothelial constitutive isoenzyme.
Purification of NOS from human placenta.
Amion and chorion were removed from fresh placenta, which was then rinsed with 0.9% NaCl. The tissue was homogenized in a Waring blender in 3 volumes of HEDS buffer (20 mM Hepes pH 7.8, 0.1 mM EDTA, 5 mM DTT, 0.2M sucrose) plus 0.1 mM PMSF.
The homogenate was filtered through cheesecloth and then centrifuged at 1000 g for 20 min. The supernatant was recentrifuged at 27500 g for 30 min. Solid ammonium sulfate was added to the supernatant to give 32% saturation. Precipitated protein was pelleted at 25,000 g and then redissolved in a minimal volume of HEDS buffer plus 0.1 mM PMSF, 10 μg/ml leupeptin and soybean trypsin inhibitor, and 1 μg/ml pepstatin. The redissolved pellet was centrigued at 15000 g for 10 min. To the supernatant was added 1/20 volume of 2',5' ADP agarose resin (Sigma), and the slurry was mixed slowly overnight. In morning, slurry was packed into a column. The resin was sequentially washed with HEDS, 0.5M NaCl in HEDS, HEDS, and then NOS was eluted with 10 mM NADPH in HEDS. The enzyme could be concentrated by ultrafiltration and quick frozen and stored at -70° C. without loss in activity for at least 6 months.
Assay for human placental NOS
as §1

In test [3] the target is T3, human brain NOS (Homo sapiens, UniProt P29475).
T3 construct: Purification of NOS from human brain; from tissue; host or cells: frozen human brain; ammonium sulfate, 2',5' ADP-agarose, calmodulin-agarose
The test is described as follows: Inhibition of human brain NOS (citrulline formation). It counts as biochemical. Conditions: Schmidt et al. 1991 procedure, 10 μM tetrahydrobiopterin included. As to the method: Purification of NOS from human brain
Human brain NOS was prepared using variations of the procedures of Schmidt et al. (PNAS 88 365-369, 1991), Mayer et al. (Fed. Eur. Biochem. Soc. 288 187-191, 1991), and Bredt and Snyder, (PNAS 87 682-685, 1990). Briefly, frozen human brain (1050 gm) was homogenized in cold buffer A (50 mM HEPES, pH 7.5 (pH at RT) and 0.5 mM EDTA, 10 mM DTT, 3.6 L total volume) with a polytron. The mixture was centrifuged at 13,000 g for 1 hour and the supernatant was removed (about 2050 ml). To the supernatant, solid aimmonium sulfate (365 gm, about 30% of saturation) was added and stirred slowly for a total of 30 minutes. The precipitate was pelleted at 13,000 g for 30 minutes and the pellet was resuspended in ~400 mls of buffer A with 4 μM tetrahydrobiopterin, 1 μM FAD (Sigma), 1 μM FMN (Sigma). The solution was centrifuged at 41,000 g for 60 minutes. The supernatant was removed, frozen by pouring into liquid nitrogen, and stored overnight at -70° C. The mixture was thawed and passed through a 2',5' ADP-agarose column (0.4 g swelled in buffer A) at 4 ml/min. The column was washed with 100 ml buffer A, 200 ml buffer A with 500 mM NaCl, 100 ml Buffer A, then 30 ml buffer A with 5 mM NADPH. To the enzyme eluted from the column was added glycerol to 15%, CaCl2 to 1 mM, tetrahydrobiopterin to 10 μM, tween to 0.1% and FAD, FMN to 1 μM each. The enzyme was then passed through a 1 ml calmodulin-agarose column which had been equilibrated in Buffer A, 15% glycerol and 1 mM CaCl2. The column was washed with 15 ml Buffer A, 15% glycerol and 1 mM CaCl2, 15 ml of Buffer A, 15% glycerol and 5 mM EDTA, and then enzyme activity was eluted with 3 ml of Buffer A, 15% glycerol and 5 mM EDTA, 1 M NaCl. To the enzyme was added tetrahydrobiopterin to 10 μM, FAD and FMN to 1 μM, and tween to 0.1%. This solution was concentrated by centriprep-30 to a volume of approximately 500 μl. Human NOS was prepared completely analogously except the calmodulin-agarose column was not used. Enzyme activity was determined as described by Schmidt et al. 1991, except that 10 μM tetrahydrobiopterin was included in the assay.

The conditions of test [4]: phenylalanine-loaded rat; Chemical Abstracts vol. 89, 191755v; cited from earlier work.
Test [5] concerns NO synthase. The settings on record: background statement; cited from earlier work.

With `CCSC(=N)NCc1ccc(CC(N)C(=O)O)s1` (racemic) [Compound 23, 3-(5-((S-ethylisothioureido)methyl)-2-thienyl)-DL-alanine], the Ki in test [1], in test [2] and in test [3] was ≤ 10 µM in each case.
Regarding `CSC(=N)NCc1ccc(C(N)C(=O)O)s1` (racemic) [Compound 24], the inhibition constant (Ki) in test [1], in test [2] and in test [3] was > 50 µM throughout.
`CCSC(=N)NCc1ccc(C(N)C(=O)O)s1` (racemic) [Compound 25]: the Ki was ≤ 10 µM in test [1], ≤ 50 µM in test [2] and ≤ 10 µM in test [3].
Consider `CSC(=N)Nc1cccc(CC(N)C(=O)O)c1` (racemic) [Compound 26, 3-(S-methylisothioureido)-DL-phenylalanine], for which the Ki in test [1] is ≤ 50 µM; in test [2], ≤ 10 µM; in test [3] it was ≤ 10 µM.
Consider `CCSC(=N)Nc1cccc(CC(N)C(=O)O)c1` (racemic) [Compound 27, 3-(S-ethylisothioureido)-DL-phenylalanine], for which the figures for the Ki in test [1], in test [2] and in test [3] were ≤ 10 µM, ≤ 10 µM and ≤ 1 µM, respectively.
Regarding `N=C(N)Nc1ccc(C[C@H](N)C(=O)O)cc1` [4-guanidino phenylalanine], in test [4], the “renal excretion of cystine” value is recorded as “to some extent” and the “renal excretion of lysine” value is given as “increased”.
Consider `N=C(N)NCc1ccc(C[C@H](N)C(=O)O)cc1` [4-guanidinomethylphenylalanine], for which, in test [4], the “renal excretion of cystine” value is on record as “to some extent” and the “renal excretion of lysine” value was “increased”.
On to `NC(=S)Nc1ccc(C[C@H](N)C(=O)O)cc1` [Compound 28, 4-thioureido-L-phenylalanine], for which the Ki in test [1], in test [2] and in test [3] was > 50 µM each time.
For the compound `CSC(=N)Nc1ccc(C[C@H](N)C(=O)O)cc1` [Compound 29, 4-(S-methylisothioureido)-L-phenylalanine], the Ki in test [1], in test [2] and in test [3] was > 50 µM throughout.
In the case of `CCSC(=N)Nc1ccc(C[C@H](N)C(=O)O)cc1` [Compound 30, 4-(S-ethylisothioureido)-L-phenylalanine], the results for the Ki in test [1], in test [2] and in test [3] were ≤ 10 µM, ≤ 0.5 µM and ≤ 0.5 µM, respectively.
With `CN=C(N)NCCC[C@H](N)C(=O)O` [L-NMMA, L-N-monomethyl-arginine], in test [5], the “inhibition of the synthesis of NO from L-arginine” value was “can be inhibited”; the “selectivity between constitutive and inducible NO synthase” value is “non-selective”.
Regarding nitroarginine, the “selectivity between constitutive and inducible NO synthase” value in test [5] is listed as “non-selective”.

What is called Ki is a dissociation constant, usually derived from enzyme kinetics or from competition with a known ligand.
